pKi: −log10 of the molar value.
Tests used:
[1] = target: human recombinant GABA A receptor containing the alpha2, beta2, and gamma2 subunits (Homo sapiens (Human), UniProt P18507+P47869); assay: Radioligand competition binding assay with [3H]Ro-15-1788 (Flumazenil); conditions: [3H]flumazenil competition, HEK cell membranes, geometric mean of at least two replicates; read-out: GABA-α2 Ki
Description: The affinity of the test compounds was determined by radioligand competition binding assay, using the known compound [3H]Ro-15-1788 (Flumazenil) (Perkin Elmer, 85.4 Ci/mmol) and the human recombinant GABA A receptor containing the alpha2, beta2, and gamma2 subunits.
Membranes were prepared from HEK cells expressing hGABA A alpha2beta2-gamma2 receptor, and validated to ascertain protein concentration, receptor expression and to determine the Kd of the flumazenil as well as the Ki of a standard set of compounds before being used to test new compounds.
The assay was carried out in 96 well plates; testing compounds using a 10 point semi-log dilution range from 19 uM top concentration. 100 ul of radioligand and 100 ul of membrane in 50 mM Tris-HCl and 0.05% F127 with 1 ul of test compound was incubated for 2 hours to allow the reaction to achieve equilibrium, and then harvested onto filter plates, dried and counted on a TopCount NXT. The data was analysed, and the Ki values were presented as the geometric mean of at least two replicates.

[2] = target: GABRA2-GABRB2-GABRG2 chloride currents in HEK cells (Homo sapiens (Human), UniProt P18507+P47869); assay: QPatch electrophysiological recording, % enhancement of GABA current (α2 PAM); format: cell-based; conditions: % enhancement of GABA current at approximately EC10 GABA, −60 mV, whole-cell patch clamp
Description: Human Embryonic Kidney (HEK) cells were transfected with a GABRA2-GABRB2-GABRG2 construct using standard techniques. Cells stably expressing the GABRA2-GABRB2-GABRG2 constructs were identified by their resistance to Geneticin G-418 (320 μg/ml), Hygromycin (160 μg/ml) and Zeocin (40 μg/ml). Clones were screened for expression using the BD Pathway 855 imaging system (BD Biosciences, Rockville, Md., USA) and QPatch automated electrophysiology platform (Sophion, Copenhagen, Denmark). […]
GABRA2-GABRB2-GABRG2 chloride currents in HEK cells were measured using the whole-cell configuration of the patch-clamp technique (Hamill et al., 1981). […]
All compounds were dissolved in dimethyl sulfoxide to make 30 mM or 10 mM stock solutions, which were then diluted to 1000 times the desired final concentration in dimethyl sulfoxide. […] Currents were recorded at −60 mV, using an approximately EC10 concentration of gamma-aminobutyric acid (GABA). […]
Compound effect (% enhancement of gamma-aminobutyric acid current) was calculated using the following formula: [((peak modulator current amplitude-leak)−(GABA current amplitude-leak))/(GABA current amplitude-leak)]*100, […]

[3] = target: GABRA1-GABRB3-GABRG2 construct in HEK cells (Homo sapiens (Human), UniProt P14867+P18507); assay: QPatch electrophysiological recording, % enhancement of GABA current (α1 PAM); format: cell-based; conditions: % enhancement of GABA current at approximately EC10 GABA, −60 mV, whole-cell patch clamp

How did the pKi [1] turn out when `CCn1ncc2c(-c3ccc(F)c(-c4ccc(S(=O)(=O)CC)cc4OC)c3)cnnc21` [Example 1, 4-(4′-Ethanesulfonyl-6-fluoro-2′-methoxybiphenyl-3-yl)-1-ethyl-1H-pyrazolo[3,4-c]pyridazine] was run?
Its pKi is over 9.22.

What about the “α2 PAM” value [2] of the same compound?
The value was 109%.

What about the “α1 PAM” value [3] of the same compound?
Its value is 18%.

With `CCn1ncc2c(-c3ccc(F)c(-c4ccc(S(=O)(=O)CC)cc4)c3)cnnc21` [Example 2, 4-(4′-Ethanesulfonyl-6-fluorobiphenyl-3-yl)-1-ethyl-1H-pyrazolo[3,4-c]pyridazine] as the compound, how does the pKi [1] read?
The pKi was 7.76.

What about the “α2 PAM” value [2] of the same compound?
Its value is 109%.

What about the “α1 PAM” value [3] of the same compound?
The value was 52%.
